In one data set the target is Human GSK3beta (Homo sapiens (Human), UniProt P49841). Put plainly: GSK 3beta kinase test (Z'-LYTE). The format is biochemical. The note with it: read-out: IC50 in μM (GSK3beta-Inhibition). The protocol:
Human GSK3beta (expressed and prified from SF21 cells) is obtained from the University Dundee/Scotland (Dr. James Hastie—Dept. of Biochemistry) in 50 mM Tris (pH7.5); 150 mM NaCl; 0.1 mM EGTA, 270 mM Succrose, 0.1% β-mercaptoethanol, 1 mM benzamidine, 0.2 mM PMSF; sequence see below). The enzyme is diluted to 3.56 μM (168 μg/ml) in enzyme dilution buffer and 6 μl aliquots are stored at −80° C.
The activity of GSK3 kinase protein is measured using the Z′-LYTETM assay technology from Invitrogen (# PV3324).
The assay is performed in 384 black plates from Corning (#3676) in a final volume of 10 μl by adding 5 μl of kinase peptide mix and 2.5 μl of compound dilution. The reaction is started by addition of 2.5 μl of the 4×ATP solution.
Positive controls are reaction mixtures containing no test compound; negative controls (blanks) are reaction mixtures containing no ATP. As a further control, the phosphopeptide solution is added to wells without kinase and without ATP (=100% phosphorylation control).
The non inhibited kinase reaction will result in a phosphorylation corresponding to 20%-30% of the phosphorylation control.
The reaction is performed 1 h at room temperature. After 1h 5 μl of the development solution is added. After a further incubation for 1 h at room temperature 5 μl of the stop reagent is added. Finally the plates are read on a Flex Station II 384 (Molecular Devices).
The output text file is evaluated in an “MS-Excel—VB-Makro” and “GraphPadPrism” (Version 5) (GraphPad Software Inc.) is used to calculate the results. Data for the inhibition of GSK3beta are reported in M. data for the inhibition of the protease are reported in % CTL.

Data set [1] in a line: Human liver microsomal stability test. Type of data set: in vitro ADME. The note with it: human liver microsomes. Background: Microsomes from liver hold many membrane-bound enzymes, among them those of drug oxidation.
Data set [2] concerns the target Recombinant human Aurora B (amino acids 1-344) (Homo sapiens (Human), UniProt Q96GD4). The data set can be described thus: Aurora B kinase test (ADP Glo luminescence). The format is biochemical. A general note: ADP-Glo turns the ADP formed in a reaction into a luminescent signal.
Data set [3] has as its target Recombinant human Syk (amino acids 342-635), GST-Syk kinase fusion protein (Homo sapiens (Human), UniProt P43405). Put plainly: Syk kinase test (Kinase Glo luminescence). The format is biochemical. On the technique in general: Kinase-Glo reads ATP consumption through a luciferase reaction.
The target in another data set is FLT3 (Homo sapiens (Human), UniProt P36888). The data set can be described thus: FLT3 kinase test (Z'-LYTE). Type of data set: biochemical. In a few lines:
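Z'-LYTE FRET format; kinase reaction started with ATP, run 1 h at room temperature, then 1 h development before stop reagent. Controls without compound, without kinase, and phosphopeptide as 100% phosphorylation reference; values reported in M.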

[4] abbreviates: Table 1, read-out: AURB-inhibition IC50-value.
[5] abbreviates: read-out: IC50 in μM (AURB-Inhibition).
Setting [6] is: Table 1, read-out: SYK-inhibition IC50-value.
[7] abbreviates: read-out: IC50 in μM (SYK-Inhibition).
The mark [8] stands for this setting: Table 1, read-out: FLT3-inhibition IC50-value.
[9] abbreviates: read-out: IC50 in μM (FLT3-Inhibition).
Where [10] appears, read: Table 2a, read-out: IC50 in μM (AURB-Inhibition).
[11] abbreviates: Table 2a, read-out: IC50 in μM (SYK-Inhibition).
[12] abbreviates: Table 2a, read-out: IC50 in μM (FLT3-Inhibition).

The structures appear in SMILES notation. Where two headings read alike, the source gives them in different places.

Chain of Human GSK3beta (P49841 whole entry): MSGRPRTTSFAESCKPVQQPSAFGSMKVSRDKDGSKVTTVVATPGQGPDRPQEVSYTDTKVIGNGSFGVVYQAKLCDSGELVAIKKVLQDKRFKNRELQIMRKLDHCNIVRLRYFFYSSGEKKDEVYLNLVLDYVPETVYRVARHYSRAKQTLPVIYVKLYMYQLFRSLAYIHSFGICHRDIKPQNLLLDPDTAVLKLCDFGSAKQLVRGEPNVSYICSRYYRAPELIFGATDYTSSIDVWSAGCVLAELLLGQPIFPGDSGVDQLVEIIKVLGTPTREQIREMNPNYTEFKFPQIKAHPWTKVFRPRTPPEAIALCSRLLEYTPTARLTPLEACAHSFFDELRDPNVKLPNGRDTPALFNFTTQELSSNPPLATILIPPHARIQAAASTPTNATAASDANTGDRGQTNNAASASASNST
Chain of Recombinant human Aurora B (amino acids 1-344) (Q96GD4 whole entry, the tested form may be a part): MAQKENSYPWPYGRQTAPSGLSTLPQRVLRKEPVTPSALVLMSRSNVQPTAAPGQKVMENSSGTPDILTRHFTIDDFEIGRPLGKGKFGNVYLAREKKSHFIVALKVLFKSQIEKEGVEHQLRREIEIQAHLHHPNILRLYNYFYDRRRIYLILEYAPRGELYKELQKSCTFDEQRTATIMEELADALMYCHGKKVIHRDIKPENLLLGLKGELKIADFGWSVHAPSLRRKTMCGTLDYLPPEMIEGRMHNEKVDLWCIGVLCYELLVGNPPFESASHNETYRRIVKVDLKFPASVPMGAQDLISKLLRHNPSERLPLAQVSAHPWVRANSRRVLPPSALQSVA
Chain of FLT3 (P36888 27-993): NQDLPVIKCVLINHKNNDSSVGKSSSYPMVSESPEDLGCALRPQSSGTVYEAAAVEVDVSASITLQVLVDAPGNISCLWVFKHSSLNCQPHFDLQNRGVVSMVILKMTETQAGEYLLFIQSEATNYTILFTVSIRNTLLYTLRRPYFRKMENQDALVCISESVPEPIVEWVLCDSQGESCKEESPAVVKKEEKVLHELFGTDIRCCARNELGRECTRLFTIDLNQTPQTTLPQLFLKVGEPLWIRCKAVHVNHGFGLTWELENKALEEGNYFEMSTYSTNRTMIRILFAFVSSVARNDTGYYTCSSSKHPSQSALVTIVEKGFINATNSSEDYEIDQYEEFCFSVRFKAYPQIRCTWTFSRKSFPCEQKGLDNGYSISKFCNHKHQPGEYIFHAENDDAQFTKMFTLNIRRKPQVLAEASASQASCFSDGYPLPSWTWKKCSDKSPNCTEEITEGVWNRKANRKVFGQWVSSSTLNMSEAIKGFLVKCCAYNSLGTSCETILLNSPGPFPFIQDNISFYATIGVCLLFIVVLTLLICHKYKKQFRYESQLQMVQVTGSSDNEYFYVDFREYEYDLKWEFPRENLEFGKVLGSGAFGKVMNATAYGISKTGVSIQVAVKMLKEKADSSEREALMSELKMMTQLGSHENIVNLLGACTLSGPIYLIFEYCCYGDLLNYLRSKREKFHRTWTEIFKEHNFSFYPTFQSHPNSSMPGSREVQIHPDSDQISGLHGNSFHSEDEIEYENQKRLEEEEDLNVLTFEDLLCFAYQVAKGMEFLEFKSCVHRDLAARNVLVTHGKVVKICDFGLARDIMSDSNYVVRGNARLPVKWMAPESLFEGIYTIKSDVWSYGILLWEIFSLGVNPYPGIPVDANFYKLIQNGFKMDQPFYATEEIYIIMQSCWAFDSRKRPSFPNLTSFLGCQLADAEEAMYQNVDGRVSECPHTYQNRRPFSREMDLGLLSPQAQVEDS

With `C[C@@H](Oc1cc(-c2ccc3c(c2)c(N)nn3C)cc2nn(C)cc12)[C@H]1CNC(=O)C1` [Example 36, (4R)-4-[(1R)-1-[6-(3-amino-1-methyl-indazol-5-yl)-2-methyl-indazol-4-yl]oxyethyl]pyrrolidin-2-one], the IC50 (in general, the concentration at which inhibition is half-maximal) on Human GSK3beta was above 10 µM; in data set [2] (setting [4]), 35.2 µM; in data set [2] (setting [5]) it was 35.2 µM; in data set [3] (setting [6]) it was 0.0172 µM; in data set [3] (setting [7]), 0.0172 µM; at FLT3 (setting [8]), 2.39 µM. In addition, the IC50 on FLT3 (setting [9]) was 2.39 µM. Further, the “microsomal stability Cl [% Qh]” value in data set [1] (Qh = liver blood flow) is below 23 % Qh.

`C[C@@H](Oc1cc(-c2ccc3c(cnn3C)c2)cc2nn(C)cc12)[C@H]1CNC(=O)C1` [Example 28, (4R)-4-[(1R)-1-[2-methyl-6-(1-methylindazol-5-yl)indazol-4-yl]oxyethyl]pyrrolidin-2-one]: the half-inhibitory concentration (IC50) at Human GSK3beta was above 10 µM; in data set [2] (setting [4]) it was above 50 µM; in data set [2] (setting [5]), above 50 µM; in data set [3] (setting [6]), 0.0335 µM; in data set [3] (setting [7]) it was 0.0335 µM; at FLT3 (setting [8]) it was 3.69 µM. Also, the IC50 at FLT3 (setting [9]) came to 3.69 µM. Also, the “microsomal stability Cl [% Qh]” value in data set [1] (Qh = liver blood flow) is given as below 23 % Qh.

On to `COc1ccc(-c2cc3nn(C)cc3c(O[C@H](C)[C@H]3CNC(=O)C3)n2)cc1OC` [Example 1, (4R)-4-[(1R)-1-[6-(3,4-Dimethoxyphenyl)-2-methyl-pyrazolo[4,3-c]pyridin-4-yl]oxyethyl]pyrrolidin-2-one], for which the IC50 on Human GSK3beta is above 10 µM; in data set [2] (setting [4]), above 50 µM; in data set [2] (setting [5]), above 50 µM; in data set [3] (setting [6]) it was 0.016 µM; in data set [3] (setting [7]) it was 0.016 µM; on FLT3 (setting [8]), 3.99 µM. The IC50 at FLT3 (setting [9]) is 3.99 µM. For the same molecule, the “microsomal stability Cl [% Qh]” value in data set [1] (Qh = liver blood flow) was below 23 % Qh.

On to `C[C@@H](Oc1cc(-c2cnn(C(C)(C)C)c2)cc2nn(C)cc12)[C@H]1CNC(=O)C1` [Example 18, (4R)-4-[(1R)-1-[6-(1-tert-butylpyrazol-4-yl)-2-methyl-indazol-4-yl]oxyethyl]pyrrolidin-2-one], for which the IC50 on Human GSK3beta (Table 2a) was above 10 µM; in data set [2] (setting [4]), above 50 µM; in data set [2] (setting [10]), above 50 µM; in data set [3] (setting [6]) it was 0.0046 µM; in data set [3] (setting [11]), 0.0046 µM; on FLT3 (setting [8]) it was 13.4 µM. For the same molecule, on FLT3 (setting [12]), the IC50 is 13.4 µM. Also, the “microsomal stability Cl [% Qh]” value in data set [1] (test compound 1 μM, Table 2a) is on record as below 23 % Qh.

For the molecule `C[C@@H](Oc1nc(-c2cnn(C(C)(C)C)c2)cc2nn(C)cc12)[C@H]1CNC(=O)C1` [Example 2, (4R)-4-[(1R)-1-[6-(1-tert-Butylpyrazol-4-yl)-2-methyl-pyrazolo[4,3-c]pyridin-4-yl]oxyethyl]pyrrolidin-2-one], the IC50 on Human GSK3beta (Table 2a) is above 10 µM; in data set [2] (setting [4]), above 50 µM; in data set [2] (setting [10]) it was above 50 µM; in data set [3] (setting [6]) it was 0.0144 µM; in data set [3] (setting [11]) it was 0.0144 µM; on FLT3 (setting [8]), 14.8 µM. Further, at FLT3 (setting [12]), the IC50 was 14.8 µM. Moreover, the “microsomal stability Cl [% Qh]” value in data set [1] (test compound 1 μM, Table 2a) is listed as below 23 % Qh.

As to `C[C@@H](Oc1nc(-c2ccc3c(cnn3C)c2)cc2nn(C)cc12)[C@H]1CNC(=O)C1` [Example 62, (4R)-4-[(1R)-1-[2-methyl-6-(1-methylindazol-5-yl)pyrazolo[4,3-c]pyridin-4-yl]oxyethyl]pyrrolidin-2-one], the IC50 is above 10 µM on Human GSK3beta; above 50 µM in data set [2] (setting [4]); above 50 µM in data set [2] (setting [5]); 0.0193 µM in data set [3] (setting [6]); 0.0193 µM in data set [3] (setting [7]); 4.78 µM at FLT3 (setting [8]). In addition, the IC50 at FLT3 (setting [9]) is 4.78 µM. For the same molecule, in data set [1] (Qh = liver blood flow), the “microsomal stability Cl [% Qh]” value was below 23 % Qh.

Consider `Cc1nc(C)c2cc(-c3cc(O[C@H](C)[C@H]4CNC(=O)C4)c4cccnc4c3)ccc2n1` [107 of WO 2013/014060], for which the concentration for half-maximal inhibition (IC50) on Human GSK3beta is above 10 µM; in data set [2] (setting [5]), 1.82 µM; in data set [3] (setting [7]) it was 0.009 µM; at FLT3 (setting [9]), 1.76 µM. Also, in data set [1] (Qh = liver blood flow), the “microsomal stability Cl [% Qh]” value stood at 38 % Qh.

Regarding `COc1cc(-c2cc3nn(C)cc3c(O[C@H](C)[C@H]3CNC(=O)C3)n2)ccc1OC(C)C` [Example 81, (4R)-4-[(1R)-1-[6-(4-isopropoxy-3-methoxy-phenyl)-2-methyl-pyrazolo-[4,3-c]pyridin-4-yl]oxyethyl]-pyrrolidin-2-one], the IC50 at Human GSK3beta was above 10 µM; in data set [2] (setting [4]), 48.4 µM; in data set [2] (setting [5]), 48.4 µM; in data set [3] (setting [6]), 0.024 µM; in data set [3] (setting [7]), 0.024 µM; at FLT3 (setting [8]) it was 5.24 µM. Further, the IC50 on FLT3 (setting [9]) worked out at 5.24 µM. In addition, the “microsomal stability Cl [% Qh]” value in data set [1] (Qh = liver blood flow) was below 23 % Qh.

Consider `C[C@@H](Oc1cc(-c2ccc(F)cn2)cc2nn(C)cc12)[C@H]1CNC(=O)C1` [Example 41, (4R)-4-[(1R)-1-[6-(5-fluoro-2-pyridyl)-2-methyl-indazol-4-yl]oxyethyl]pyrrolidin-2-one], for which the IC50 was above 10 µM on Human GSK3beta; above 50 µM in data set [2] (setting [4]); above 50 µM in data set [2] (setting [5]); 0.164 µM in data set [3] (setting [6]); 0.164 µM in data set [3] (setting [7]); 42.8 µM on FLT3 (setting [8]). In addition, on FLT3 (setting [9]), the IC50 stood at 42.8 µM. Moreover, the “microsomal stability Cl [% Qh]” value in data set [1] (Qh = liver blood flow) is listed as below 23 % Qh.

With `Cc1nc2ccc(-c3cc(O[C@H](C)[C@H]4CNC(=O)C4)c4cccnc4c3)cc2s1` [85 of WO 2013/014060], the IC50 was 6.82 µM at Human GSK3beta, 0.46 µM in data set [2] (setting [5]), 0.002 µM in data set [3] (setting [7]) and 0.321 µM at FLT3 (setting [9]). For the same molecule, the “microsomal stability Cl [% Qh]” value in data set [1] (Qh = liver blood flow) is given as 49 % Qh.

Turning to `C[C@@H](Oc1nc(-c2ccc(N3CCN(C)CC3)cc2)cc2nn(C)cc12)[C@H]1CNC(=O)C1` [Example 67, (4R)-4-[(1R)-1-[2-methyl-6-[4-(4-methylpiperazin-1-yl)phenyl]pyrazolo[4,3-c]pyridin-4-yl]oxyethyl]-pyrrolidin-2-one], the IC50 at Human GSK3beta was above 10 µM; in data set [2] (setting [4]), above 50 µM; in data set [2] (setting [5]), above 50 µM; in data set [3] (setting [6]), 0.0152 µM; in data set [3] (setting [7]), 0.0152 µM; on FLT3 (setting [8]), 1.68 µM. Moreover, the IC50 on FLT3 (setting [9]) worked out at 1.68 µM. The “microsomal stability Cl [% Qh]” value in data set [1] (Qh = liver blood flow) is on record as 34 % Qh.

Take `C[C@@H](Oc1cc(-c2ccc(N3CCN(C)CC3)cc2)cc2nn(C)cc12)[C@H]1CNC(=O)C1` [Example 26, (4R)-4-[(1R)-1-[2-methyl-6-[4-(4-methylpiperazin-1-yl)phenyl]indazol-4-yl]oxyethyl]pyrrolidin-2-one]: the IC50 at Human GSK3beta was above 10 µM; in data set [2] (setting [4]), above 50 µM; in data set [2] (setting [5]), above 50 µM; in data set [3] (setting [6]), 0.0258 µM; in data set [3] (setting [7]), 0.0258 µM; at FLT3 (setting [8]), 0.95 µM. Also, the IC50 on FLT3 (setting [9]) was 0.95 µM. For the same molecule, the “microsomal stability Cl [% Qh]” value in data set [1] (Qh = liver blood flow) is reported as below 23 % Qh.

(Values after US9914735B2, “Heteroaryl Syk inhibitors” (Boehringer Ingelheim International GmbH, priority 2014, dated 2018).)
